Data set [1] is described as follows: oral bioavailability in rats, LCMS detection. In kind it is in vivo. To be noted: for AUC / bioavailability: rat, plasma, 10 mg/kg; for bioavailability: oral, read-out: 6 h bioavailability determined by circulating plasma levels. The protocol: Similarly, oral bioavailabity was determined in rats using LCMS methodology. Rat plasma samples containing SEQ ID NO:3 and/or SEQ ID NO:6 were extracted using a Waters Oasis MAX 96 well solid phase extraction (SPE) plate. A 200 μL volume of rat plasma was mixed with 200 μL of ^13C9, ^15N—SEQ ID NO:3 in the well of a prepared SPE plate. The samples were drawn through the stationary phase with 15 mm Hg vacuum. All samples were rinsed with 200 μL of 2% ammonium hydroxide in water followed by 200 μL of 20% methanol in water. The samples were eluted with consecutive 100 μL volumes of 5/20/75 formic acid/water/methanol and 100 μL 5/15/80 formic acid/water/methanol. The samples were dried under nitrogen and resuspended in 100 μL of 20% methanol in water. Samples were analyzed by a Waters Quattro Micro mass spectrometer coupled to a Waters 1525 binary pump with a Waters 2777 autosampler. A 40 μL volume of each sample was injected onto a Thermo Hypersil GOLD C18 column (2.1×50 mm, 5 um). SEQ ID NO:3 and SEQ ID NO:6 were eluted by a gradient over 3 minutes with acetonitrile and water containing 0.05% trifluoroacetic acid. The Quattro Micro mass spectrometer was run in multiple reaction monitoring (MRM) mode using the mass transitions of 764>182 and 682>136 for SEQ ID NO:3 and SEQ ID NO:6 respectively. Using this methodology, SEQ ID NO:3 was dosed orally and by IV to rats at 10 mg/kg. […] To determine the oral biovailability of SEQ ID NO:6, this peptide was dosed to rats at 10 mg/kg. In this experiment, the limit of detection (LOD) for SEQ ID NO:6 was 0.78 nM. SEQ ID NO:6 was detected at all time points for the intravenous dose and was not detected beyond 240 min for the oral dose. For non-detected values, the LOD was used as an upper estimate of the concentration of SEQ ID NO:6. The calculated value for AUCp.o., (0-6h) was […] and AUCi.v., (0-6h) was 1,590,000 nM-min. The 6 h bioavailability of SEQ ID NO:6 determined by circulating plasma levels was 0.08%

Data set [2] has as its target T1, GC-C receptors on the cell surface of human colonic cells (T84 cells) (Homo sapiens, UniProt P25092).
T1 construct: 2.5×10^5 T84 cells (0.25 mg protein); host or cells: T84 human colonic cells
Put plainly: competitive radioligand-binding assay on T84 cells. The procedure:
The radiolabeled tracer used in these experiments was ^125I-SEQ ID NO:7. To determine binding constants, competitive inhibition of binding was used. T84 cells were cultured in T-150 plastic flasks in DMEM and Ham's F-12 medium containing 5% fetal bovine serum. Monolayers at 60-70% confluency (approximately 10^7 cells) were collected by gentle scraping followed by centrifugation, and washed twice in 50 mL of phosphate-buffered saline (PBS). The cells were resuspended in 1 mL DMEM containing 20 mM […] (Hepes), pH 7.0 and 0.5% bovine serum albumin (BSA). T84 cells were incubated with a constant amount of ^125I-SEQ ID NO:7 containing various concentrations of cold competitor. Free ^125I-SEQ ID NO:7 was separated from bound tracer by rapid suction filtration. The binding reactions were carried out in 1.5 mL microfuge tubes in 0.24 mL of DMEM/20 mM Hepes pH 7.0/0.5% BSA containing: 2.5×10^5 T84 cells (0.25 mg protein), 200,000 cpm ^125I-SEQ ID NO:7 (41 fmol, 170 pM), and 0.01 to 1,000 nM competitor. Binding assays at pH 5.0 were done in DMEM/20 mM 2-(N-morpholino) ethanesulfonic acid (Mes), pH 5.0. Binding assays in pH 8.0 were done in DMEM/20 mM Hepes/50 mM sodium bicarbonate pH 8.0. One sample contained no competitor (B0) and another contained no cells. After incubation at 37° C. for 1 h, the reaction mixtures were applied to Whatman GF/B glass-fiber filters by suction filtration. The filters were then rinsed with 10 mL ice-cold PBS buffer, inserted into plastic tubes, and added to 2 mL scintillation fluid. Radioactivity was measured in a LS 6500 liquid scintillation counter (Beckman-Coulter). The percent bound in each sample is calculated by the equation:
% B/B0=(sample cpm−no cells cpm)×100/(B0cpm−no cells cpm)
Competitive radioligand-binding curves were generated using the Graphpad PRISM™ computer program. […]

By bioavailability is commonly meant the share of a dose that reaches the circulation, judged against a reference dose that is usually intravenous.

Read-outs that look alike come from different tables or passages of the source. Bridge positions count the residues as written; N and C are the ends. Peptide text beside a SMILES is read from it.

T1 sequence (P25092 24-1073): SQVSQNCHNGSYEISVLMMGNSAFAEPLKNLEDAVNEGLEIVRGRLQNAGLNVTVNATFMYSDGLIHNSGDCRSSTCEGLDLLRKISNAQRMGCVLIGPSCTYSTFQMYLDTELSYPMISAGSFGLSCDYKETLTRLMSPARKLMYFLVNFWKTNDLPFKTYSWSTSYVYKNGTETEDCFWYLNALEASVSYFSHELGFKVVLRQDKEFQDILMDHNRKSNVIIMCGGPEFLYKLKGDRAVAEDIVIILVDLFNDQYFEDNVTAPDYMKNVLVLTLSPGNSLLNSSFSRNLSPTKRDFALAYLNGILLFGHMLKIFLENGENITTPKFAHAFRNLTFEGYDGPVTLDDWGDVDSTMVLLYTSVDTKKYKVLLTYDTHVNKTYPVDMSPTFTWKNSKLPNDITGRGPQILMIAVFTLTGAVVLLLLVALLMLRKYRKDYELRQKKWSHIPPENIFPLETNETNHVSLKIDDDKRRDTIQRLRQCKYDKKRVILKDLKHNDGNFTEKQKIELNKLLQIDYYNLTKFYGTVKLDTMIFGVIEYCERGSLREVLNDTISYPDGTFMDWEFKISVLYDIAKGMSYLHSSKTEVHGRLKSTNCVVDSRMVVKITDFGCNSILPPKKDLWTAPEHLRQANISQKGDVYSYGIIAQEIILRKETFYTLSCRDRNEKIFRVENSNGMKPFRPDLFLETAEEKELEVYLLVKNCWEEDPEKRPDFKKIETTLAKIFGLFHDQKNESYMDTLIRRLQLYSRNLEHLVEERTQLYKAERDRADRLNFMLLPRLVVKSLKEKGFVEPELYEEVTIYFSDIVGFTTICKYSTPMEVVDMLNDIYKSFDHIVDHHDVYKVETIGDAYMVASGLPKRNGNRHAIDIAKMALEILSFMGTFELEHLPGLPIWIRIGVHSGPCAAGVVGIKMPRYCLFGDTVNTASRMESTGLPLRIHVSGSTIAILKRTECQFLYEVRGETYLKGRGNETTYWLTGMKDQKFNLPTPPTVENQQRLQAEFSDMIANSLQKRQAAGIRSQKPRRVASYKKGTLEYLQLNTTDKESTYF

Regarding `C[C@@H]1NC(=O)[C@@H]2CCCN2C(=O)[C@H](CC(N)=O)NC(=O)[C@@H]2CSSC[C@H](N)C(=O)N[C@H]3CSSC[C@H](NC1=O)C(=O)N[C@@H]([C@@H](C)O)C(=O)NCC(=O)N[C@H](C(=O)O)CSSC[C@H](NC(=O)[C@H](Cc1ccc(O)cc1)NC(=O)[C@H](CCC(=O)O)NC3=O)C(=O)N2` [SEQ ID NO:6] (H-CCEYCCNPACTGC-OH; disulfide 1-6, 2-10, 5-13), the AUC in data set [1] (iv, rats, SEQ ID NO:3 10 mg/kg IV, metabolite, read-out: AUC for SEQ ID NO:6 in SEQ ID NO:3 intravenously dosed rats (converted)) was 0.0597 µM·h; in data set [1] (iv, rats, SEQ ID NO:6 10 mg/kg intravenous, read-out: AUCi.v., (0-6h) (converted)), 26.5 µM·h; in data set [1] (po, rats, SEQ ID NO:3 10 mg/kg oral, metabolite, read-out: AUC for SEQ ID NO:6 in rats dosed orally with SEQ ID NO:3 (converted)), 0.0036 µM·h; in data set [1] (po, rats, SEQ ID NO:6 10 mg/kg oral, LOD used for non-detected values, read-out: AUCp.o., (0-6h)), < 0.0218 µM·h. In addition, in data set [1] (rats, LCMS), the bioavailability amounted to 0.08%. In data set [1] (rats dosed with SEQ ID NO:3), the “detection as metabolite in plasma” value is listed as “detected in the plasma”. Moreover, the “last time detected in plasma after the oral dose” value in data set [1] (rats, SEQ ID NO:6 10 mg/kg oral, LOD 0.78 nM) was ≤ 240 min. Further, the Ki in data set [2] stood at 1.57 nM; in data set [2] (read-out: Ki2 (low affinity site), pH 7.0, T84 cells, tracer 125I-SEQ ID NO:7), 446 nM.

On to `C[C@@H]1NC(=O)[C@@H]2CCCN2C(=O)[C@H](CC(N)=O)NC(=O)[C@@H]2CSSC[C@H](N)C(=O)N[C@H]3CSSC[C@H](NC1=O)C(=O)N[C@@H]([C@@H](C)O)C(=O)NCC(=O)N[C@H](C(=O)N[C@@H](Cc1ccc(O)cc1)C(=O)O)CSSC[C@H](NC(=O)[C@H](Cc1ccc(O)cc1)NC(=O)[C@H](CCC(=O)O)NC3=O)C(=O)N2` [SEQ ID NO:3] (H-CCEYCCNPACTGCY-OH; disulfide 1-6, 2-10, 5-13; N-terminus and C-terminus assumed), for which the AUC in data set [1] (iv, rats, 10 mg/kg IV, LCMS, read-out: AUC of SEQ ID NO:3, intravenously administered (converted)) was 12.3 µM·h; in data set [1] (po, rats, 10 mg/kg oral, LCMS, read-out: AUC of SEQ ID NO:3, orally dosed (converted)), 0.0129 µM·h. Also, in data set [1] (rats, LCMS), the bioavailability stood at 0.11%. In addition, the “6 h bioavailability when AUC values for SEQ ID NO:6 are included” value in data set [1] (rats, SEQ ID NO:3 10 mg/kg, LCMS) was found to be 0.13%. Further, the “effect of pH on binding to the high affinity site, Ki1” value in data set [2] (pH 5, 7 and 8) is reported as “not affected by pH”.

The values above are taken from patent US20090253634A1, “Methods and Compositions for the Treatment of Gastrointestinal Disorders” (MICROBIA, INC., priority 2005, published 2009).
